Consider 26 compounds from patent publication US5474988A, “5-phenylpyrrolo-1,4-benzoxazine and 5-phenylpyrrolo-1,4-benzothiazine compounds, process and intermediates for their production and pharmaceutical compositions containing them” (Kali-Chemie Pharma GmbH, priority 1993, dated 1995).

For this test, the target named is T1, 5-lipoxygenase (Cavia porcellus, UniProt A0A286X958).
T1 construct: The 5-LO was concentrated in a known manner from PMNs of male Dunkin-Hartley guinea-pigs; endogenous in cells; host or cells: peritoneal PMNs of male Dunkin-Hartley guinea-pigs, homogenized; 10,000 x g supernatant used as enzyme solution
T1 sequence (A0A286X958 1-674): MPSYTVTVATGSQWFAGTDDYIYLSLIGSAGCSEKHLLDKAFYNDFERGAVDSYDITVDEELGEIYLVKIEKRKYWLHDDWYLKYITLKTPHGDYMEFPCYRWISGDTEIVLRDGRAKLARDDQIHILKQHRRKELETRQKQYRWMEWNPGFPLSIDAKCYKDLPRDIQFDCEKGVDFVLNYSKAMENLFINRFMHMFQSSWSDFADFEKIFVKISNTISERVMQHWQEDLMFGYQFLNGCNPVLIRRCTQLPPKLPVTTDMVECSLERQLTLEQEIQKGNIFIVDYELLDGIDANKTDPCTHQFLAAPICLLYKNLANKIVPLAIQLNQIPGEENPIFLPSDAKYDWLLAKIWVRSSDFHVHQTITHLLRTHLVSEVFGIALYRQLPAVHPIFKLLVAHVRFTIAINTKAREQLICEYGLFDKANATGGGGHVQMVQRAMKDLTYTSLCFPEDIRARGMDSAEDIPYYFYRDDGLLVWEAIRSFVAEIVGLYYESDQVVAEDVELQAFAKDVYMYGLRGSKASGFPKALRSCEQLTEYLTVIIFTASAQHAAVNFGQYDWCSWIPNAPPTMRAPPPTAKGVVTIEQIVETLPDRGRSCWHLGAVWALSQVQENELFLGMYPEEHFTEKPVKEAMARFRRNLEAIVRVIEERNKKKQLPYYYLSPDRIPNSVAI
The test is described as follows: inhibitory activity on free 5-lipoxygenase concentrated from peritoneal PMNs of the guinea-pig (5-HETE formation). The test is classed as biochemical. The following applies: 10^-5 mole/liter; guinea-pig 5-LO, 37° C.; read-out: In vitro % inhibitory activity on 5-HETE formation caused by free 5-LO. The text has this: 4b. In vitro determination of inhibitory activity on 5-lipoxygenase concentrated from peritoneal PMNs of the guinea-pig.
An inhibition of 5-lipoxygenase can be caused by direct inhibitory action of the substances on the enzyme and/or by interference with the activation of the enzyme. While in test 4a the 5-lipoxygenase inhibition of the substances was investigated in rat PMN cells, in test 4b the inhibitory activity of the substances was investigated on free 5-LO concentrated from guinea-pig PMN cells according to the method of D. Aharony et al., J. Biol. Chem. 261 (1986), 11512-11519 (1986).
The 5-LO was concentrated in a known manner from PMNs of male Dunkin-Hartley guinea-pigs (body weight 400 to 500 g) as follows. 10 ml of a solution containing 27.9 g/l of sodium thioglycolate were injected i.p. into the animals in order to induce the PMN invasion as a result of this inflammatory stimulus. After 22 hours, the animals were sacrificed by lethal ether anaesthesia. 70 ml of HBSS without Ca^++ and Mg^++ ions and containing 0.2% by weight of sodium citrate were then injected into the abdominal cavity. The cell suspension (>80% of the cells are PMNs) was withdrawn from the abdominal cavity, filtered through a cheese-making filter cloth, and washed twice with a 50 mM potassium phosphate buffer solution of pH 7.4, which contained 0.5 mM ethylenediaminetetraacetic acid, 1% by weight of gelatine and 20 μM indomethacin. The cells were resuspended, and the PMN suspension containing 10^8 cells/ml was homogenized three times for 15 seconds each in an ice-bath in a homogenizer of the Labsonic™ type set at high speed. The resulting suspension was centrifuged at 4° C. (15 minutes at 10,000×g). The supernatant liquid was used for the investigation as a solution of the free 5-LO enzyme.
The experiments were carried out at 37° C. for 7 minutes using 0.625 ml samples of this enzyme solution. For the experiments, the enzyme solution (=equivalent of 2.5×10^7 cells), 0.5 mM glutathione, 1 mM ATP and 0.3 mM calcium chloride were added to test tubes. […] of the test substance were added to the samples dissolved in sufficient dimethylformamide such that the dimethylformamide concentration in each test tube is 0.5%. Only dimethylformamide was added to the control samples. After 2 minutes, the formation of 5-(S)-hydroxy-6,8,11,14-eicosatetraenoic acid (=[…]) was initiated by addition 10 μM arachidonic acid. After 5 minutes, the reaction was terminated by addition of 0.625 ml of a mixture of methyl acetate/methanol/0.2 m citric acid 15:2:0.5 v/v/v. 5-HETE was extracted twice using this solvent mixture. The 5-HETE-containing phases were combined and evaporated to dryness under a nitrogen atmosphere. The residue was taken up in a mixture of methanol/water/acetic acid 75:21:0.02 v/v/v having a pH of 5.7, and the solution was investigated for its content of 5-HETE by means of reverse phase HPLC. To accomplish this, a […] silanized silica gel column (Hichrom® ODS2, 250×4.6 mm) was employed as the adsorbent and a mixture of methanol/water/acetic acid 75:21:0.02 adjusted to pH 5.7 with ammonia and having a flow rate of 1 ml/min was used as the eluent. 5-HETE, which was eluted as a single peak after 20 minutes, was identified by comparison with standard solutions eluted at the same time and determined using a UV light detector at a wavelength of 235 nm. Quantitative determination was carried out by comparison of the peak area obtained with peak areas occurring in the calibrated standard solutions. From the 5-HETE contents of the samples determined, the inhibitory activity of the test substances was calculated in % inhibition of 5-HETE synthesis in comparison to the control samples containing no test substance.
`COc1ccc2c3c1c(C)c(-c1ccc(O)cc1)n3CC(CCN1CCN(c3cc(C)ccn3)CC1)O2` (centres unmarked) [Example 3, 2,3-Dihydro-5-(4-hydroxyphenyl)-7-methoxy-6-methyl-2-[2-(4-(4-methylpyridin-2-yl)piperazin-1-yl)ethyl]pyrrolo[1,2,3-de]-1,4-benzoxazine]: the inhibition at 10 µM was determined as 53%.
With `Cc1ccnc(N2CCN(CCC3Cn4c(-c5ccc(O)cc5)c(C)c5c(O)ccc(c54)O3)CC2)c1` (centres unmarked) [Example 4, 2,3-Dihydro-7-hydroxy-5-(4-hydroxyphenyl)-6-methyl-2-[2-(4-(4-methylpyridin-2-yl)piperazin-1-yl)ethyl]pyrrolo[1,2,3-de]-1,4-benzoxazine], the inhibition at 10 µM was determined as 100%.
As for `Cc1ccnc(N2CCN(C(=O)CCCC3Cn4c(-c5cc(C)c(O)c(C)c5)c(C)c5cccc(c54)O3)CC2)c1` (centres unmarked) [Example 9, 2,3-Dihydro-5-(3,5-dimethyl-4-hydroxyphenyl)-6-methyl-2-[4-(4-(4-methylpyridin-2-yl)piperazin-1-yl)-4-oxobutyl]-pyrrolo[1,2,3-de]-1,4-benzoxazine], the inhibition at 10 µM was determined as 88%.
The same measure for `COc1cc(-c2c(C)c3cccc4c3n2CC(CCN2CCN(c3cc(C)ccn3)CC2)O4)ccc1O` (centres unmarked) [Example 12]: 100%.
In the case of `Cc1ccnc(N2CCN(CCC3Cn4c(-c5ccc(O)c(O)c5)c(C)c5cccc(c54)O3)CC2)c1` (centres unmarked) [Example 13] it was 99%.
Take `Cc1ccnc(N2CCN(C(=O)CCC3Cn4c(-c5ccc(O)cc5)c(C)c5cccc(c54)O3)CC2)c1` (centres unmarked) [Example 15]: the inhibition at 10 µM is 94%.
In the case of `Cc1ccnc(N2CCN(CCC3Cn4c(-c5cc(C)c(O)c(C)c5)c(C)c5cccc(c54)O3)CC2)c1` (centres unmarked) [Example 20] it was 100%; in that of `Cc1cc(-c2c(C)c3cccc4c3n2CC(CCCC(=O)N2CCN(c3ccccn3)CC2)O4)cc(C)c1O` (centres unmarked) [Example 23], 93%; in that of `Cc1ccnc(N2CCN(C(=O)CCC3Cn4c(-c5cc(C)c(O)c(C)c5)c(C)c5cccc(c54)O3)CC2)c1` (centres unmarked) [Example 25], 92%.
Take `Cc1cc(-c2c(C)c3cccc4c3n2CC(CCC(=O)N2CCN(c3ccccn3)CC2)O4)cc(C)c1O` (centres unmarked) [Example 26]: the inhibition at 10 µM turned out to be 96%.
The same measure for `Cc1cc(-c2c(C)c3c(F)ccc4c3n2CC(CCN2CCN(c3ccccn3)CC2)O4)cc(C)c1O` (centres unmarked) [Example 27]: 50%; for `Cc1ccnc(N2CCN(CCC3Cn4c(-c5cc(C)c(O)c(C)c5)c(C)c5c(F)ccc(c54)O3)CC2)c1` (centres unmarked) [Example 28]: 44%.
In the case of `Cc1ccnc(N2CCN(CCCC3Cn4c(-c5cc(C)c(O)c(C)c5)c(C)c5c(F)ccc(c54)O3)CC2)c1` (centres unmarked) [Example 29] it was 67%; in that of `Cc1ccc(N2CCN(C(=O)CCC3Cn4c(-c5ccc(O)cc5)c(C)c5cccc(c54)O3)CC2)nc1` (centres unmarked) [Example 34], 97%; in that of `COc1cc(-c2c(C)c3cccc4c3n2CC(CCC(=O)N2CCN(c3ccc(C)cn3)CC2)O4)ccc1O` (centres unmarked) [Example 39], 100%.
In the case of `Cc1ccnc(N2CCN(CCC3Cn4c(-c5cc(C)c(O)c(C)c5)c(C)c5cc(F)cc(c54)O3)CC2)c1` (centres unmarked) [Example 42] it was 55%; in that of `COc1cc2c3c(c1)c(C)c(-c1cc(C)c(O)c(C)c1)n3CC(CCN1CCN(c3cc(C)ccn3)CC1)O2` (centres unmarked) [Example 43], 77%.
Turning to `Cc1ccnc(N2CCN(CCC3Cn4c(-c5cc(C)c(O)c(C)c5)c(C)c5cc(O)cc(c54)O3)CC2)c1` (centres unmarked) [Example 44], the inhibition at 10 µM worked out at 98%.
In the case of `Cc1cc(-c2c(C)c3cccc4c3n2CC(CCCCN2CCN(c3ccccn3)CC2)O4)cc(C)c1O` (centres unmarked) [Example 65] it was 99%; in that of `Cc1ccnc(N2CCN(C(=O)CCC3Cn4c(-c5cc(C)c(O)c(C)c5)c(C)c5c(O)ccc(c54)O3)CC2)c1` (centres unmarked) [Example 67], 100%; in that of `Cc1ccnc(N2CCN(C(=O)CCC3Cn4c(-c5ccc(O)cc5)c(C)c5c(O)ccc(c54)O3)CC2)c1` (centres unmarked) [Example 69], 100%.
The same measure for `Cc1cc(-c2c(C)c3c(O)ccc4c3n2CC(CCC(=O)N2CCN(c3ccccn3)CC2)O4)cc(C)c1O` (centres unmarked) [Example 71]: 100%; for `COc1cc(-c2c(C)c3c(O)ccc4c3n2CC(CCC(=O)N2CCN(c3ccccn3)CC2)O4)cc(C)c1O` (centres unmarked) [Example 72]: 100%.
The same measure for `Cc1ccnc(N2CCN(CCCC3Cn4c(-c5cc(C)c(O)c(C)c5)c(C)c5c(O)ccc(c54)O3)CC2)c1` (centres unmarked) [Example 73]: 100%; for `Cc1cccnc1N1CCN(CCCC2Cn3c(-c4cc(C)c(O)c(C)c4)c(C)c4c(O)ccc(c43)O2)CC1` (centres unmarked) [Example 74]: 100%; for `Cc1cc(-c2c(C)c3c(OCc4ccccc4)ccc4c3n2CC(CCC(=O)N2CCN(c3ccccn3)CC2)O4)cc(C)c1O` (centres unmarked) [Example 75]: 100%.
